Source: ChEMBL document CHEMBL1201862, “PubChem BioAssay data set” (2004)
The source made the active and inactive calls.

Columns and labels:
[1] = target: T1, Heat shock factor protein 1 (Mus musculus, UniProt P38532); experiment: enhancement of HSF1-driven luciferase signal – cell-based, NIH3T3, luminescence, dose retest, confirmation (AID 435004); format: functional;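 note: stress induced by proteasome inhibitor MG132 added 30 min after compound; luciferase reporter driven by HSF1 response element in NIH3T3 cells; actives raise luminescence as potentiators of the MG132 stress response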
T1 sequence (P38532 whole entry): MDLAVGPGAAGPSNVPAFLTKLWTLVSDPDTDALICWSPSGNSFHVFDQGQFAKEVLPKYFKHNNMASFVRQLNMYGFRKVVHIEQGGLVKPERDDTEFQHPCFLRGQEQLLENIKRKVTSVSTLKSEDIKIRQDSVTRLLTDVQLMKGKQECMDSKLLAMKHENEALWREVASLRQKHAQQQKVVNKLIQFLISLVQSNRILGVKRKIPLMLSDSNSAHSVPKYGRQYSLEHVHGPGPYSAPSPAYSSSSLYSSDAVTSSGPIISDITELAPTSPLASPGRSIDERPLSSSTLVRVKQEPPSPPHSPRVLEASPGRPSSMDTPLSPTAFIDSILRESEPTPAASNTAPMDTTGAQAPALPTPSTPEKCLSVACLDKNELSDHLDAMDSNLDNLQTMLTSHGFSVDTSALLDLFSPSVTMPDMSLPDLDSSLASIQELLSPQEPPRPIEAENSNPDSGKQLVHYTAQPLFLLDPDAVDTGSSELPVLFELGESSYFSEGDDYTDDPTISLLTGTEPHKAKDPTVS

[2] = target: Genome polyprotein (dengue virus type 2, UniProt P29990); experiment: flavivirus cap methylation enzyme inhibition – biochemical, confirmation dose response, primary screen (AID 588689); format: functional
[3] = target: Histone-lysine N-methyltransferase NSD2 (Homo sapiens, UniProt O96028); format: biochemical
[4] = A549 cell cytotoxicity, dose response, cytotoxicity control, plate reader, cherry-pick, antagonist series (AID 743412); format: functional, cell-based
[5] = toxicity toward HepG2 liver cells – cell-based, plate reader, cherry-pick, antagonist series, cytotoxicity control, dose response (AID 743416); format: functional
[6] = blockers of bursicon-stimulated LGR2 cAMP reporter – cell-based, HEK293, CRE-luciferase reporter, cherry pick, set 2, dose response (AID 743343); format: functional;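 note: transfected cells were stimulated with diluted bursicon conditioned medium after compound addition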
[7] = blockade of melanocortin 4 receptor signaling – cell-based, plate reader, cherry pick, counter-screen for LGR2 antagonist project, dose response (AID 743444); format: functional;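 note: transfected HEK 293 cells stimulated with alpha-MSH peptide; potency of inhibitors of the alpha-MSH evoked signal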
[8] = viability loss in HEK293 cells – cell-based, plate reader, cherry-picked samples, cytotoxicity control, dose response (AID 743446); format: functional
[9] = target: Kallikrein-7 (Homo sapiens, UniProt P49862); experiment: Fluorescence Intensity-based biochemical primary high throughput dose response assay to identify activators of kallikrein-7 (K7) zymogen.
[10] = target: Paired box protein Pax-8 (Homo sapiens, UniProt Q06710); experiment: PAX8 transcriptional activity inhibition in RMG-I – RMG-I cells, luciferase, cherry-pick, dose response (AID 687027); format: functional, cell-based;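 note: luciferase reporter driven by Pax8 target thyroperoxidase promoter measured by SteadyGlo luminescence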
[11] = OVCAR-3 cell viability loss – plate reader, dry powder samples, PAX8 inhibitor project, dose response (AID 743044); format: functional, cell-based
[12] = general cell-killing toxicity readout – plate reader, dry powder samples, cytotoxicity control for PAX8 inhibitor project, dose response (AID 743021); format: functional, cell-based
[13] = OVCAR8 cell viability loss – plate reader, dry powder samples, PAX8 project, dose response (AID 743197); format: functional, cell-based; settings: OVCAR-8
[14] = target: Endoplasmic reticulum aminopeptidase 1 (Homo sapiens, UniProt Q9NZ08); experiment: inhibition of human ERAP1 enzyme activity – biochemical, cherry-pick, set 2, plate reader, dose response (AID 743314)
[15] = growth inhibition of yeast DHODH-expressing 3D7 parasites – SYBR Green, dry powder samples, dose response (AID 1159570); format: functional, cell-based;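 note: parasite growth measured after 72 hours of compound exposure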
[16] = toxicity to human HepG2 hepatoma cells – cell-based, plate reader, dry powder samples, cytotoxicity control, dose response (AID 1159569); format: functional;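 note: inhibitor potency with signal falling toward the positive control level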
[17] = P. falciparum Dd2 growth inhibitors, dose response, SYBR Green, cherry-picked samples (AID 1159567); format: functional, cell-based
[18] = Dd2 malaria parasite growth inhibition potency – SYBR Green, dry powder samples, dose response (AID 1159566); format: functional, cell-based;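 note: potency for growth inhibition with lower SYBR green DNA signal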
[19] = growth inhibition of PfATP4-mutant resistant parasites – NITD609-resistant line, SYBR Green, dry powder, dose response (AID 1159571); format: functional, cell-based;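 note: parasites synchronized at ring stage by sorbitol before testing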
[20] = rise of 2N DNA cells, HeLa – IC50, dose response (AID 1117349); format: functional, cell-based
[21] = rise of 4N DNA cells, HeLa – IC50, dose response (AID 1117351); format: functional, cell-based
[22] = CellTiter-Glo luminescence survival assay, SW480 colon tumor line, concentration-response curve, half-maximal inhibitory concentration (AID 1117338); format: functional
[23] = RKO cell viability reduction, dose response, CellTiter-Glo luminescence (AID 1117322); format: functional
[24] = cytotoxicity toward HCT116 cells – cell-based, CellTiter-Glo luminescence, IC50, dose response (AID 1117332); format: functional; settings: HCT-116
[25] = SNU-C1 cell viability reduction, dose response, CellTiter-Glo luminescence (AID 1117323); format: functional, cell-based
[26] = cytotoxicity toward Colo320 cells – cell-based, CellTiter-Glo luminescence, IC50, dose response (AID 1117334); format: functional; settings: COLO 320
[27] = cytotoxicity toward HT-29 cells – cell-based, CellTiter-Glo luminescence, IC50, dose response (AID 1117330); format: functional
[28] = Reduced DLD-1 viability, concentration-response, CellTiter-Glo luminescence (AID 1117352); format: functional
[29] = IC50 of insulin release inhibition, rat insulinoma INS-1E line, 5 mM glucose, cell-based (AID 1117331); format: functional

Sequence of Endoplasmic reticulum aminopeptidase 1 (Q9NZ08 whole entry): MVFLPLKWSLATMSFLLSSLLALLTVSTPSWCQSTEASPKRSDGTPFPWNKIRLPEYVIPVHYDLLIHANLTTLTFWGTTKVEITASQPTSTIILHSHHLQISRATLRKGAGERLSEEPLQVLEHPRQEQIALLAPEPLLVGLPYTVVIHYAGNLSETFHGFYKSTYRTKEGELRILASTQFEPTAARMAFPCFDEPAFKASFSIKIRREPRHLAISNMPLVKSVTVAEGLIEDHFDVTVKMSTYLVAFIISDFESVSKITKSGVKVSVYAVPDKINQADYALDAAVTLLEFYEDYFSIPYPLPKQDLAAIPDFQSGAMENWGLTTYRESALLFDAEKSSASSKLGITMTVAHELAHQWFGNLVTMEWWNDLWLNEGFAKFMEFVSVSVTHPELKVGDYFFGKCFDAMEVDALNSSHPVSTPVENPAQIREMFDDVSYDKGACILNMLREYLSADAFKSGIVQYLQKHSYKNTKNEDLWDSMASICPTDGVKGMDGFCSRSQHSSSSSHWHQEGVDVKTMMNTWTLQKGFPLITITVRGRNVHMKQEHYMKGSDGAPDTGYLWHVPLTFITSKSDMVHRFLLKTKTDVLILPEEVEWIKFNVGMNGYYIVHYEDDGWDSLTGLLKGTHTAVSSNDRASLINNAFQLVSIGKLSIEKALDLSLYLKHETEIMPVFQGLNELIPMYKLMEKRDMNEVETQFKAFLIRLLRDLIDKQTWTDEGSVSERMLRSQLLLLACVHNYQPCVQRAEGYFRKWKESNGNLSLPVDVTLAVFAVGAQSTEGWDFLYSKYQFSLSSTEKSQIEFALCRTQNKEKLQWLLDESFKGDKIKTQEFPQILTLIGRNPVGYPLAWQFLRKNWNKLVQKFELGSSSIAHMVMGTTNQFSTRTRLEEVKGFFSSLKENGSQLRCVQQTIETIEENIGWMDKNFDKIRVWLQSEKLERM
Sequence of Paired box protein Pax-8 (Q06710 whole entry): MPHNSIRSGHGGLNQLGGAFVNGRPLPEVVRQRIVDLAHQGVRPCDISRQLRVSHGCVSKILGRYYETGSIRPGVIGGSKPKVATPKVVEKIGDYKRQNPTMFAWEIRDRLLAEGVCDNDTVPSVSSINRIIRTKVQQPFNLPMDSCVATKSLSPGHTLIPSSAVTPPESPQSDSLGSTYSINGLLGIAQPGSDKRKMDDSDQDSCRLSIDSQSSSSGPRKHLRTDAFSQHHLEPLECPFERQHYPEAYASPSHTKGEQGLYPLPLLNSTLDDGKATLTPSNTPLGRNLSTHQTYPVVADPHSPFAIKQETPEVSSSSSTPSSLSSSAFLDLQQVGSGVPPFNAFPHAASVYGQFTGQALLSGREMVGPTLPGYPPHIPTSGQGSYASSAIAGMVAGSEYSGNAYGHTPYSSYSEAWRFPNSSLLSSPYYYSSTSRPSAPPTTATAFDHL
Sequence of Histone-lysine N-methyltransferase NSD2 (O96028 whole entry): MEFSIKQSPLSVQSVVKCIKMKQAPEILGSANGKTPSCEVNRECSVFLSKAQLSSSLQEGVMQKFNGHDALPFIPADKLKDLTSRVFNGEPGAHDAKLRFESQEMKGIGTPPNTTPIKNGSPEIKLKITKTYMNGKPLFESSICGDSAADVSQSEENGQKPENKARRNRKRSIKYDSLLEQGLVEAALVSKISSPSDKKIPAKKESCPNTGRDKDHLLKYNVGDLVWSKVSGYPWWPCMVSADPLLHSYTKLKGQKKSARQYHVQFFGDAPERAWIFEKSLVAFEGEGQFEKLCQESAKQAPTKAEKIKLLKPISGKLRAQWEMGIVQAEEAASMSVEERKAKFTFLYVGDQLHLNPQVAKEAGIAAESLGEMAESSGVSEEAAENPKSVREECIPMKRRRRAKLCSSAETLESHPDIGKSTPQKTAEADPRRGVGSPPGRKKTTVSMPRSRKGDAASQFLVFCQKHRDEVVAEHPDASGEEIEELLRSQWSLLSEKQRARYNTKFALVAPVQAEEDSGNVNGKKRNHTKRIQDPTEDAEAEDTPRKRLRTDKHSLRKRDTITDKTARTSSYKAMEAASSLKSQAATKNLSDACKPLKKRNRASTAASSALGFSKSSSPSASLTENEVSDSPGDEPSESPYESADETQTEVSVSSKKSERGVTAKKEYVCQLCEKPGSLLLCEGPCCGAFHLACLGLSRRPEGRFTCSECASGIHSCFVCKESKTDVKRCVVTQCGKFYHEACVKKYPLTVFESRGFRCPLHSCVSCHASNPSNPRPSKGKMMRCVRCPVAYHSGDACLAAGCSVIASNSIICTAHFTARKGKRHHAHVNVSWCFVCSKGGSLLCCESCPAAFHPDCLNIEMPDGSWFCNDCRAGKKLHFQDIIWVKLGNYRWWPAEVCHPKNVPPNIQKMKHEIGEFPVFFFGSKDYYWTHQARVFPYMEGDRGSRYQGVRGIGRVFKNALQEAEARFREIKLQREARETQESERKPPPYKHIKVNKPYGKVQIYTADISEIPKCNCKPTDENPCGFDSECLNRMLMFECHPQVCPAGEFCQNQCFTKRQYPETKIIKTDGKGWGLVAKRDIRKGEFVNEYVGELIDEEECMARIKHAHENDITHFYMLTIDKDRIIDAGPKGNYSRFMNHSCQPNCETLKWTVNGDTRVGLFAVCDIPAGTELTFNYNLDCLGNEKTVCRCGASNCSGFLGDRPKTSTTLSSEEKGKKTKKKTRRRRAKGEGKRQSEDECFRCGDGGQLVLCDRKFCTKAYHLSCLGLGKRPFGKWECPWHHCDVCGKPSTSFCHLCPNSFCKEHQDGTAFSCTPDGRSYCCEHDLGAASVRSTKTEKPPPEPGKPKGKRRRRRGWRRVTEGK
Sequence of Kallikrein-7 (P49862 whole entry): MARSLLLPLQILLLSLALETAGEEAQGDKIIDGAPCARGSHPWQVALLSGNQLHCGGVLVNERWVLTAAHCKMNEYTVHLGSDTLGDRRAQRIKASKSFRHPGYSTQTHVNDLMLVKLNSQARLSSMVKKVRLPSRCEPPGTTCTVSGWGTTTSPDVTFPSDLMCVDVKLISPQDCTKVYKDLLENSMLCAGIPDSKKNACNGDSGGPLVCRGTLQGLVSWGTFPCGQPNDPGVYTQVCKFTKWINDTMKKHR
Sequence of Genome polyprotein (P29990 2492-3391 limits assumed): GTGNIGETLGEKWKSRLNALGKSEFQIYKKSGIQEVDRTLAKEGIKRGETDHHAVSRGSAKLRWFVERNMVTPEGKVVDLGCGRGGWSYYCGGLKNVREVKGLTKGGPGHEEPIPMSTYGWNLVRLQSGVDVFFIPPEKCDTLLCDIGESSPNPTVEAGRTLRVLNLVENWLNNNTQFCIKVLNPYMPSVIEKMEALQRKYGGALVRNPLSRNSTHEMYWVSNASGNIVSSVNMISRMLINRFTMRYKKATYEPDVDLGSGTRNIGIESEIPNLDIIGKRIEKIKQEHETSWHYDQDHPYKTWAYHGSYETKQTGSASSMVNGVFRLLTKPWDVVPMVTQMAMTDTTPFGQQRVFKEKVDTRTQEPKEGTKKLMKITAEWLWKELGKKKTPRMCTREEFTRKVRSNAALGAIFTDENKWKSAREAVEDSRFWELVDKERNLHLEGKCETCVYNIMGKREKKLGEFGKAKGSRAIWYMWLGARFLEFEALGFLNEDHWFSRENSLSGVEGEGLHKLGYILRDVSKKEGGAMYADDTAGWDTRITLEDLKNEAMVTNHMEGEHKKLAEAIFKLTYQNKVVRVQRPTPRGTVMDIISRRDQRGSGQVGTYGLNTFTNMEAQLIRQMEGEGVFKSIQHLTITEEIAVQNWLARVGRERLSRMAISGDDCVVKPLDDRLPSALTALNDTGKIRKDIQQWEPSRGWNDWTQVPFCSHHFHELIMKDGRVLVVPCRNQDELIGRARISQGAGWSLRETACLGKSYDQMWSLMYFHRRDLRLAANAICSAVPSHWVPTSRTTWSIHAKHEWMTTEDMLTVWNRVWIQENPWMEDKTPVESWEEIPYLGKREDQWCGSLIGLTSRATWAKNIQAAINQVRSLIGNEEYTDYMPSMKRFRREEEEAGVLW

Structure (SMILES): O=C(O)CN1C(=O)/C(=C\c2cc(Br)ccc2OCc2ccc(F)cc2)SC1=S
- EC50 [1]: > 260 µM (inactive)
- IC50 [2]: 31.4 µM (active)
- AC50 [3]: 18.5 µM (active)

Structure (SMILES): COc1cc(OC)nc(Nc2nc(C(N)Cc3ccc(C(F)(F)F)cc3)cs2)n1 (stereo not given)
- AC50 [4]: 7.58 µM (active)
- AC50 [5]: 7.18 µM (active)
- AC50 [6]: 18.9 µM (active)
- AC50 [7]: 24.8 µM (active)
- AC50 [8]: 15.7 µM (active)

Structure (SMILES): Cc1cccc(/C=N/c2ccccc2C(N)=O)c1
- EC50 [9]: > 69.5 µM (inactive)

Structure (SMILES): CN(C)CC(=O)N1CCCCN2[C@H](CO)[C@H](c3ccc(/C=C/c4ccccc4)cc3)[C@H]2C1
- AC50 [10]: 9.31 µM (active)
- AC50 [11]: 47.6 µM (active)
- AC50 [12]: 42.9 µM (active)
- AC50 [13]: 69.1 µM (active)

Structure (SMILES): COCC(=O)N1[C@@H]2c3ccc(/C=C/c4ccccc4)c(=O)n3C[C@H]1[C@H](CO)[C@H]2C(=O)N1CCOCC1
- AC50 [14]: 4.85 µM (active)

Structure (SMILES): C/C(=N\NC(=O)CC#N)c1cc2ccc(O)cc2oc1=O
- AC50 [14]: 6.38 µM (active)

Structure (SMILES): C[C@H]1CN([C@@H](C)CO)C(=O)c2c(c3ccccc3n2C)-c2ccccc2CO[C@H]1CN(C)C(=O)Nc1cccc(Cl)c1Cl
- AC50 [15]: 1.77 µM (active)
- AC50 [16]: 18.7 µM (active)
- AC50 [17]: 3.09 µM (active)
- AC50 [18]: 0.785 µM (active)
- AC50 [19]: 0.897 µM (active)

Structure (SMILES): O=S(=O)(c1ccc(F)cc1)N1CCCCN2[C@@H](CO)[C@@H](c3ccc(C4=CCCCC4)cc3)[C@@H]2C1
- AC50 [15]: 1.15 µM (active)
- AC50 [16]: 12.8 µM (active)
- AC50 [17]: 1.69 µM (active)
- AC50 [18]: 1.07 µM (active)
- AC50 [19]: 0.915 µM (active)

Structure (SMILES): C1CN(P2(N3CC3)=NP(N3CC3)(N3CC3)=NP(N3CC3)(N3CC3)=N2)CCO1 (stereo not given) [FOTRETAMINE]
- IC50 [20]: > 10 µM (inactive)
- IC50 [21]: > 10 µM (inactive)

Structure (SMILES): Cc1onc(-c2ccccc2)c1-c1ccc(S(N)(=O)=O)cc1 [VALDECOXIB]
- IC50 [22]: > 20 µM (inactive)
- IC50 [23]: > 20 µM (inactive)
- IC50 [24]: > 20 µM (inactive)
- IC50 [25]: > 20 µM (inactive)
- IC50 [26]: > 20 µM (inactive)
- IC50 [27]: > 20 µM (inactive)
- IC50 [28]: > 20 µM (inactive)

Structure (SMILES): CCCC(CCC)C(=O)O [VALPROIC ACID]
- IC50 [29]: > 33.3 µM (inactive)
